From BigSolDB 2.1

COc1cnc(Cl)nc1Cl
Details | solubility (mole fraction)
in acetone, 297.35 K | 0.348
in acetone, 299.36 K | 0.368
in acetone, 301.17 K | 0.386
in acetone, 303.13 K | 0.403
in acetone, 304.54 K | 0.42
in acetone, 306.18 K | 0.436
in acetone, 307.53 K | 0.45
in acetone, 308.97 K | 0.466
in acetone, 310.25 K | 0.481
in acetone, 311.37 K | 0.492
in ethanol, 299.44 K | 0.0474
in ethanol, 301.27 K | 0.0527
in ethanol, 303.17 K | 0.0584
in ethanol, 305.17 K | 0.0655
in ethanol, 307.06 K | 0.0745
in ethanol, 309.05 K | 0.0855
in ethanol, 310.73 K | 0.0972
in ethanol, 312.58 K | 0.11
in ethanol, 314 K | 0.125
in ethanol, 315.47 K | 0.141
in ethanol, 316.61 K | 0.158
in ethyl acetate, 295.6 K | 0.288
in ethyl acetate, 296.53 K | 0.295
in ethyl acetate, 298.25 K | 0.311
in ethyl acetate, 300.66 K | 0.33
in ethyl acetate, 302.28 K | 0.347
in ethyl acetate, 304.15 K | 0.364
in ethyl acetate, 305.62 K | 0.382
in ethyl acetate, 307.47 K | 0.401
in ethyl acetate, 309.19 K | 0.422
in ethyl acetate, 311.16 K | 0.444
in ethyl acetate, 313.07 K | 0.468
in ethyl acetate, 314.57 K | 0.49
in ethyl acetate, 316.39 K | 0.513
in methanol, 302.37 K | 0.0598
in methanol, 303.78 K | 0.0659
in methanol, 305.44 K | 0.0734
in methanol, 306.57 K | 0.0803
in methanol, 308.12 K | 0.0893
in methanol, 309.67 K | 0.102
in methanol, 311.15 K | 0.114
in methanol, 312.43 K | 0.13
in methanol, 313.55 K | 0.146
in methanol, 314.81 K | 0.163
in methanol, 315.8 K | 0.181
in methanol, 316.95 K | 0.202
in n-heptane, 298.1 K | 0.0094
in n-heptane, 299.83 K | 0.0104
in n-heptane, 302.1 K | 0.0116
in n-heptane, 303.81 K | 0.0129
in n-heptane, 305.72 K | 0.0141
in n-heptane, 307.55 K | 0.0157
in n-heptane, 309.57 K | 0.0174
in n-heptane, 310.97 K | 0.0192
in n-heptane, 312.89 K | 0.0214
in n-heptane, 315.04 K | 0.0239
in n-heptane, 317.15 K | 0.0268
in n-heptane, 318.83 K | 0.0296
in n-heptane, 320.08 K | 0.0324
in tetrachloromethane, 298.6 K | 0.123
in tetrachloromethane, 299.42 K | 0.13
in tetrachloromethane, 300.63 K | 0.143
in tetrachloromethane, 301.97 K | 0.159
in tetrachloromethane, 303.35 K | 0.178
in tetrachloromethane, 304.82 K | 0.196
in tetrachloromethane, 305.8 K | 0.214
in tetrachloromethane, 306.87 K | 0.237
in tetrachloromethane, 308.2 K | 0.261
in tetrachloromethane, 309.57 K | 0.288
in tetrachloromethane, 310.9 K | 0.315
in tetrachloromethane, 312.15 K | 0.343
